Data reported in patent US10118935B2, “Melampomagnolide B dimers” (priority 2014, dated 2018).

Experiments:
[1] = test system: panel of 60 human cancer cell lines; experiment: Five-dose growth inhibition, panel; assay type: cell-based
SNB-19 = details: SNB-19
K-562 = experiment: NCI 60 cell line five dose, Leukemia
SR = experiment: NCI 60 cell line five dose, Leukemia
MALME-3M = experiment: NCI 60 cell line five dose, Melanoma; details: MALME-3M
MDA-MB-435 = experiment: NCI 60 cell line five dose, Melanoma
SK-MEL-5 = experiment: NCI 60 cell line five dose, Melanoma; details: SK-MEL-5
UACC-257 = experiment: NCI 60 cell line five dose, Melanoma
UACC-62 = experiment: NCI 60 cell line five dose, Melanoma
SF-268 = experiment: NCI 60 cell line five dose, CNS Cancer
SF-539 = experiment: NCI 60 cell line five dose, CNS Cancer
COLO 205 = experiment: NCI 60 cell line five dose, Colon Cancer
HCT-116 = experiment: NCI 60 cell line five dose, Colon Cancer
HCT-15 = experiment: NCI 60 cell line five dose, Colon Cancer
KM12 = experiment: NCI 60 cell line five dose, Colon Cancer
CAKI-1 = experiment: NCI 60 cell line five dose, Renal Cancer
UO-31 = experiment: NCI 60 cell line five dose, Renal Cancer
MDA-MB-468 = experiment: NCI 60 cell line five dose, Breast Cancer
OVCAR-3 = experiment: NCI 60 cell line five dose, Ovarian Cancer
OVCAR-8 = experiment: NCI 60 cell line five dose, Ovarian Cancer
PC-3 = experiment: NCI 60 cell line five dose, Prostate Cancer
A549/ATCC = experiment: NCI 60 cell line five dose, Non-Small Cell Lung Cancer
NCI-H226 = experiment: as above
NCI-H460 = experiment: as above

C=C1C(=O)O[C@H]2[C@H]1CC/C(COC(=O)NCCCCCNC(=O)OC/C1=C/CC[C@@]3(C)O[C@H]3[C@H]3OC(=O)C(=C)[C@@H]3CC1)=C\CC[C@@]1(C)O[C@@H]21 [JVM 2-76, bis(((1aR,7aS,10aS,10bS,E)-1a-Methyl-8-methylene-9-oxo-1a,2,3,6,7,7a,8,9,10a,10b-decahydrooxireno[2′,3′:9,10]cyclodeca[1,2-b]furan-5-yl)methyl)pentane-1,5-diyldicarbamate]
growth inhibition (GI50) ([1]; CCRF-CEM, HL-60 (TB), K-562, RPMI-8226, SR, NCI-H522, COLO 205, HCT-116, HT29, SW-620, LOX IMVI, OVCAR-3, RXF 393, MCF7): nano-molar range | GI50 values ([1]; remaining human cancer cell lines): low micromolar range | GI50 (SNB-19): 3.97 µM | TGI (SNB-19): 19.0 µM | CC50 (SNB-19; read-out: LC50): 92.5 µM | GI50 (K-562): 0.56 µM | TGI (K-562): 16.1 µM | CC50 (K-562; read-out: LC50): > 100 µM | GI50 (SR): 0.38 µM | TGI (SR): 2.30 µM | CC50 (SR; read-out: LC50): > 100 µM | GI50 (MALME-3M): 2.06 µM | TGI (MALME-3M): 5.24 µM | CC50 (MALME-3M; read-out: LC50): 27.3 µM | GI50 (MDA-MB-435): 1.51 µM | TGI (MDA-MB-435): 3.32 µM | CC50 (MDA-MB-435; read-out: LC50): 7.3 µM | GI50 (SK-MEL-5): 3.19 µM | TGI (SK-MEL-5): 12.2 µM | CC50 (SK-MEL-5; read-out: LC50): 37 µM | GI50 (UACC-257): 2.07 µM | TGI (UACC-257): 7.46 µM | CC50 (UACC-257; read-out: LC50): 42.4 µM | GI50 (UACC-62): 1.41 µM | TGI (UACC-62): 3.16 µM | CC50 (UACC-62; read-out: LC50): 7.04 µM | GI50 (SF-268): 3.08 µM | TGI (SF-268): 12.0 µM | CC50 (SF-268; read-out: LC50): 42.3 µM | GI50 (SF-539): 1.92 µM | TGI (SF-539): 4.56 µM | CC50 (SF-539; read-out: LC50): 12.7 µM | GI50 (COLO 205): 0.52 µM | TGI (COLO 205): 2.33 µM | CC50 (COLO 205; read-out: LC50): 7.97 µM | GI50 (HCT-116): 0.54 µM | TGI (HCT-116): 1.86 µM | CC50 (HCT-116; read-out: LC50): 4.56 µM | GI50 (HCT-15): 6.18 µM | TGI (HCT-15): 20.7 µM | CC50 (HCT-15; read-out: LC50): 49.8 µM | GI50 (KM12): 6.53 µM | TGI (KM12): 21.0 µM | CC50 (KM12; read-out: LC50): 54.2 µM | GI50 (CAKI-1): 16.1 µM | TGI (CAKI-1): 33.1 µM | CC50 (CAKI-1; read-out: LC50): 68.1 µM | GI50 (UO-31): 8.9 µM | TGI (UO-31): 22.5 µM | CC50 (UO-31; read-out: LC50): 52.3 µM | GI50 (MDA-MB-468): 1.06 µM | TGI (MDA-MB-468): 3.96 µM | CC50 (MDA-MB-468; read-out: LC50): 24.7 µM | GI50 (OVCAR-3): 0.76 µM | TGI (OVCAR-3): 2.13 µM | CC50 (OVCAR-3; read-out: LC50): 5.07 µM | GI50 (OVCAR-8): 3.27 µM | TGI (OVCAR-8): 13.7 µM | CC50 (OVCAR-8; read-out: LC50): 61 µM | GI50 (PC-3): 3.79 µM | TGI (PC-3): 15.6 µM | CC50 (PC-3; read-out: LC50): 49.4 µM | GI50 (A549/ATCC): 14.9 µM | TGI (A549/ATCC): 32.7 µM | CC50 (A549/ATCC; read-out: LC50): 71.7 µM | GI50 (NCI-H226): 2.56 µM | TGI (NCI-H226): 8.18 µM | CC50 (NCI-H226; read-out: LC50): 30.9 µM | GI50 (NCI-H460): 4.34 µM | TGI (NCI-H460): 16.2 µM | CC50 (NCI-H460; read-out: LC50): 50.7 µM
